# Reference: patent publication US10219528B2 (Zinpro Corporation, priority 2016, dated 2019)
# Columns and labels:
# [1] = Solubility test of folate precipitates suspended in water at pH 7.0, filtered, insoluble solid weighed; assay type: physicochemical
# From the text: In the parent application is was noticed that when soluble metal salts were mixed with folic acid there would be a precipitate forming after the addition of the metal salt. This precipitate was isolated and its solubility measured. According to the following procedure: The precipitates were suspended in water and the pH was adjusted to 7.0 with dilute HCl. […] The solids were dried and weighed to determine the mass of insoluble product. Very similar molar amounts of folic acid are used in this procedure.
# [2] = Sheep serum folic acid concentrations after feeding test articles
# From the text: The animals were separated into groups and housed in a barn with access to a pasture. The dosing regime was as follows. […] The sheep were fed the test feeds for fourteen (14) days.
# Example 22 is a sheep study using the protocol of Example 20 but with the Mn and iron mixtures of Example 5 and 7, respectively. […] In this test the ewes were fed the concentrate metal folate mixture dried without any carrier but mixed on ground corn for feeding.
# The liquid mixtures were then sprayed directly on ground corn.
# [3] = suspended in water at pH 7.0, stirred, filtered, solid dried and weighed
compound,measurement,setting,value
Zinc folate,Insoluble %,[1]; [3],99%
same,Insoluble %,"[1]; suspended in water at pH 7.0, stirred, filtered, solid dried and weighed, listed as Zinc folate",99%
Iron folate,Insoluble Mass,"[1]; suspended in 100 mL water, pH adjusted to 7.0, stirred, filtered, solid dried and weighed, about 3 g folate equivalents (6.8 mmols)",3.74 g
same,Insoluble %,[1]; [3],96%
same,Insoluble %,"[1]; suspended in water at pH 7.0, stirred, filtered, solid dried and weighed, listed as Iron folate",96%
"Nc1nc2ncc(CNc3ccc(C(=O)N[C@@H](CCC(=O)O)C(=O)O)cc3)nc2c(=O)[nH]1 [Folic Acid, folic acid, reference compound]",Insoluble %,"[1]; 15 min, pH 7",0.33%
same,solubility at pH of 7,[1]; pH 7,soluble
Zinc Folate Mixture [Example 1],serum folic acid concentrations,"[2]; 30 mg folic acid equivalent per head per day mixed with ground corn, 14 days, pre vs post treatment (FIGS. 1-4), mean or median",increased the greatest
same,blood serum levels of folic acid compared to folic acid alone,[2]; comparison with folic acid alone,performed better than folic acid alone
